Test results reported in patent US20150190534A1, “COMPOUNDS FOR USE AS POSITRON EMISSION IMAGING AGENTS” (UNIVERSITY OF BERN, priority 2014, published 2015).
Residue numbers refer to the chain shown, from its start. Read-outs that look alike come from different tables or passages of the source.

What was measured:
human WT-AR = molecular target: T1, human WT-AR (Homo sapiens, UniProt P10275); assay: Whole cell competitive binding assay, WT-AR
T1 construct: pSG5-AR with full-length cDNA of human WT-AR; expressed in transfected cells; host or cells: COS-7
T1 sequence (P10275 1-920): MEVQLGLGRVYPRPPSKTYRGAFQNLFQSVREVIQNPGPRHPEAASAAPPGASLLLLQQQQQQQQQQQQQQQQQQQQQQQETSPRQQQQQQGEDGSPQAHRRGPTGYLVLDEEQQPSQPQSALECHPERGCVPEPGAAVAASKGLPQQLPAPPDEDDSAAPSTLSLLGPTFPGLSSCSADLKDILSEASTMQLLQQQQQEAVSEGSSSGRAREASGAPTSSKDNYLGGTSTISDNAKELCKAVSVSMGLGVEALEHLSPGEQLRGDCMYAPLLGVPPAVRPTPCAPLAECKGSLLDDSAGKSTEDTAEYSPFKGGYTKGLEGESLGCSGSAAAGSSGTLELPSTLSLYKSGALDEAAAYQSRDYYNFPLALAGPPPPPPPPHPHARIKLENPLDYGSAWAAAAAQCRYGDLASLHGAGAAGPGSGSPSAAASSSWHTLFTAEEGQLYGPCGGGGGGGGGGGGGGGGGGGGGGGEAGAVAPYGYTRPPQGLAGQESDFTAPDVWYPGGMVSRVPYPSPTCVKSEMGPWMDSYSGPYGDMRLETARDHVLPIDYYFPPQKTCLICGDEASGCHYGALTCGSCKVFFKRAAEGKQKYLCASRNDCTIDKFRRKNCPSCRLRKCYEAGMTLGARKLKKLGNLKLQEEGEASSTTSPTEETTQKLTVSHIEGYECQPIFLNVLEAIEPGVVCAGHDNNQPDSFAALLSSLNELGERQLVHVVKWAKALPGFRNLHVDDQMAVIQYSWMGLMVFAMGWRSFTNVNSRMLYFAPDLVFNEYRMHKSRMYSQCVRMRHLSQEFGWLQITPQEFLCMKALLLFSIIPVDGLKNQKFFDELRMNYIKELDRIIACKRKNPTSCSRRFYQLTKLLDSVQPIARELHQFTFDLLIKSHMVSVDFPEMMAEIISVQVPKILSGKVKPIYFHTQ
Method: (§1) Prostate. Jun. […] T877A-AR was generated by site-directed mutagenesis as described in Andrieu T, Bertolini R, Nichols S E, et al. A novel steroidal antiandrogen targeting wild type and mutant androgen receptors. Biochem Pharmacol. Dec. […] Cells seeded on 6-well plates (density: 5×10^5/well) were transfected 96 h later with 1 μg of empty (pcDNA3) or human AR encoding plasmids using 3 μl of FuGENE-HD transfection reagent (Roche, Rotkreuz, Switzerland). One day after transfection the medium was changed to 2% charcoal treated (CT) FBS containing medium.
(§2) In 24 wells 50′000 COS-7 cells were seeded and transfected with 500 ng of receptor encoding plasmids. One day later, cells were washed and cultured in 0.5 ml of phenol-red free DMEM with 2% CT-FBS for another 24 h. […] Supernatant and cells were mixed with scintillation liquid (Irgasafe, Perkin Elmer) and radioactivity counted (Tri-Carb 2000CA, Canberra Packard). The percentage of binding in presence and absence of derivative was calculated relatively to total dpm and results expressed as percentage of binding relative to the ^3H-tracer alone (100%).

[1] = system: T877A-AR positive C4-2 tumors; assay: PET/CT imaging, C4-2 tumor bearing mice; assay type: in vivo, mouse
[2] = system: PC-3 AR-negative xenografts; assay: PET/CT imaging, PC-3 tumor bearing mice; assay type: in vivo, mouse; details: 3 h after injection
T877A-AR = molecular target: T2, T877A-AR (Homo sapiens, UniProt P10275, T878A); assay: Whole cell competitive binding assay, T877A-AR
T2 construct: pSG5-AR with full-length cDNA of human WT-AR; expressed in transfected cells; host or cells: COS-7
T2 sequence (P10275 1-920 T878A): T1 sequence (P10275 1-920) with T878A
Method: as §1, §2

[3] = Method: (§3) Male SCID-mice (Charles River, Sulzfeld, Germany) were subcutaneously injected with C4-2 and PC-3 cells into both shoulders as previously described (21).
(§4) Images were reconstructed at 0.6 mm thickness using a H31s medium smooth plus kernel. […] For biodistribution studies mice were sacrificed using CO2 after 1-3 h, designated organs and tissues harvested and weighed. Radioactivity was measured in a Gamma-counter (Wizard, Perkin Elmer) and the percentage of injected dose per gram of tissue (% ID/g) calculated.

[4] = system: T877A-AR positive C4-2 tumors; details: 1 h
Method: as §3, §4

[5] = system: receptor negative PC-3 tumors; details: 1 h
Method: as §3, §4

[6] = molecular target: T3, mutant T877A-AR (pSG5AR-T877A) transfected COS-7 cells (Homo sapiens, UniProt P10275, T878A); assay type: cell-based
T3 construct: pSG5-AR with full-length cDNA of human WT-AR; expressed in transfected cells; host or cells: COS-7
T3 sequence (P10275 1-920 T878A): T1 sequence (P10275 1-920) with T878A
Description: Prostate. Jun. 1, 2011; 71(8):872-880.), progesterone receptor (pSG5-PR-alpha, pSG5-pPRbeta, PR), glucocorticoid (pCMV5-hGR-alpha, GR) and mineralocorticoid receptors (pRShMR, MR), estrogen receptors (pCMV5-ER-alpha, pCMV5-ER-beta, ER). T877A-AR was generated by site-directed mutagenesis as described in Andrieu T, Bertolini R, Nichols S E, et al. A novel steroidal antiandrogen targeting wild type and mutant androgen receptors. Biochem Pharmacol. Dec. 1, 2011; 82(11):1651-1662. Cells seeded on 6-well plates (density: 5×10^5/well) were transfected 96 h later with 1 μg of empty (pcDNA3) or human AR encoding plasmids using 3 μl of FuGENE-HD transfection reagent (Roche, Rotkreuz, Switzerland). One day after transfection the medium was changed to 2% charcoal treated (CT) FBS containing medium.
Then cells were washed with ice cold PBS. Collected medium and PBS were considered as the unbound fraction. Cells were incubated for 5 min in glycine buffer 50 mM (pH 2.8), washed with PBS (membrane fraction) and lysed with RIPA buffer (Sigma, R0278) (cellular fraction). The radioactivity was measured by gamma counting. Cellular uptake of radioactivity was corrected by the protein amount (BCA assay, Pierce).

C[C@]12CCC(=O)C[C@@H]1CC[C@@H]1[C@@H]2CC[C@]2(C)[C@@H](OC(=O)NCCCF)CC[C@@H]12 [RB390]
IC50 (human WT-AR): 357 nM | PET signal in C4-2 tumors with unlabelled DHT ([1]; 3 h, excess of unlabelled DHT injected in parallel): nearly full receptor blockade | PET signal in C4-2 tumors ([1]; 3 h after injection): bound specifically | PET signal in PC-3 tumors [2]: remained at background levels | IC50 (T877A-AR): 32 nM

C[C@]12CC[C@H](O)C[C@@H]1CC[C@@H]1[C@@H]2CC[C@]2(C)[C@@H](OC(=O)NCCCF)CC[C@@H]12 [RB448]
IC50 (human WT-AR): 2200 nM | IC50 (T877A-AR): 37.7 nM | affinity/selectivity for T877A-AR versus WT-AR (T877A-AR; comparison of IC50 values): even more favorable selectivity

C[N+](C)(CF)CCO [^18F-FCH, ^18F-fluorocholine]
Bone ([3]; 1 h): 27.99 ± 5.95 % ID/g | Brain ([3]; 1 h): 9.61 ± 2.13 % ID/g | Heart ([3]; 1 h): 76.93 ± 5.18 % ID/g | Intestine ([3]; 1 h): 22.97 ± 4.67 % ID/g | Kidney ([3]; 1 h): 164.72 ± 33.57 % ID/g | Liver ([3]; 1 h): 48.82 ± 7.55 % ID/g | Lung ([3]; 1 h): 97.42 ± 23.21 % ID/g | Muscle ([3]; 1 h): 10.36 ± 2.58 % ID/g | Prostate ([3]; 1 h): 48.26 ± 19.35 % ID/g | Spleen ([3]; 1 h): 66.48 ± 19.45 % ID/g | Testis ([3]; 1 h): 13.58 ± 2.64 % ID/g | route of metabolism/excretion ([3]; tumor bearing SCID-mice): excreted predominantly by the kidney | C4-2 Tumor [4]: 31.62 ± 3.88 % ID/g | PC-3 Tumor [5]: 5.65 ± 1.37 % ID/g | preferential uptake by transfected cells ([6]; pcDNA3, WT-AR or T877A-AR transfected COS-7 cells): did not reveal any preferential uptake | radioactivity after washing procedures ([6]; transfected COS-7 cells, washing procedures): eliminated

^18F-fluorodeoxyglucose [^18F-FDG]
preferential uptake by transfected cells [6]: did not reveal any preferential uptake | radioactivity after washing procedures [6]: eliminated
